Results: patent US7205316B2, “Tri- and bi-cyclic heteroaryl histamine-3 receptor ligands” (Abbott Laboratories, priority 2004, dated 2007)
Counter-ions that a name gives are not always drawn.

Cc1nc2cc(-c3ccc4nc(CCN5CCC[C@H]5C)ccc4c3)ccc2s1 (as salt: hydrochloride) [Example 14, 6-(2-Methyl-benzothiazol-5-yl)-2-[2-(2R-methyl-pyrrolidin-1-yl)-ethyl]-quinoline]
melting point: 182 to 183 °C
